Experimental data taken from article PMC11671526, “β-caryophyllene sensitizes hepatocellular carcinoma cells to chemotherapeutics and inhibits cell malignancy through targeting MAPK signaling pathway” (Frontiers in Pharmacology, 2024).

System: HepG2 cells
Assay: RNA-seq transcriptome analysis of differentially expressed genes
Type: cell-based, human
Conditions: BCP vs control HepG2
Description: The quality and concentration of RNA were examined by MOPS RNA electrophoresis and Eppendorf BioSpectrometer. The transcriptome analysis was performed by BGI-Wuhan China. The RNA-seq dataset of this study is accessible in the Gene Expression Omnibus (GEO) with an access number of GSE276099. The sequence library for each sample was prepared using the BGISEQ-500 platform with a 50-bp single-end (SE50) format. […]2.2.1) was used to align the clean reads to the reference genome and alignment of the clean reads to the reference genes was carried out using Bowtie2 (v2.4.5) ([Langmead and Salzberg, 2012]; [Kim et al., 2015]). Gene expression levels were calculated by RSEM (v1.3.1) ([Li and Dewey, 2011]). Analysis of differential gene expression was performed using edgeR in the Bioconductor software package ([Robinson et al., 2010]). Using a standard protocol, the RNA samples were also examined by reverse transcription and quantitative polymerase chain reaction (RT-qPCR). In brief, for reverse transcription, total RNA (1 μg) and gDNA wiper Mix were incubated at 42°C for 2 min. The samples were immediately incubated with a master mix containing 10 pmol/μL of poly (dT) primers at 37°C for 15 min and 85°C for 5 s. To detect the expression of specific genes by qPCR analysis, gene-specific primers (shown in Supplementary Table S1) were mixed with the ChamQ Universal SYBER qPCR Master Mix and the reaction was conducted using the Roche Lightcycler 480. The GAPDH value was used to normalize the results of each gene. The RNA-seq data of BCP-treated HepG2 cells were screened for DEGs. Gene symbols were turned into Enterz ID using the org.Hs.eg.db Bio-conductor R package. The cluster profiler (v4.6.2) package was used to perform the Kyoto Encyclopedia of Genes and Genomes (KEGG) and Gene Ontology (GO) enrichment analyses ([Wu et al., 2021]). Following the Transcript per million (TPM) data of the dataset, the line chart, and heatmap were plotted using ggplot2 and pheatmap R packages, respectively.

SMILES: C=C1CC/C=C(\C)CC[C@@H]2[C@@H]1CC2(C)C [BCP, β-caryophyllene]
- change RAPGEF3 (gene RAPGEF3, DEG direction): Down
- logFC RARRES2 (gene RARRES2, RNA-seq): -0.9419
- change RARRES2 (gene RARRES2, DEG direction): Down
- logFC RASSF5 (gene RASSF5, RNA-seq): -1.261
- change RASSF5 (gene RASSF5, DEG direction): Down
- logFC RETREG1 (gene RETREG1, RNA-seq): 0.6811
- change RETREG1 (gene RETREG1, DEG direction): Up
- logFC RHOB (gene RHOB, RNA-seq): 0.8378
- change RHOB (gene RHOB, DEG direction): Up
- logFC RHOBTB1 (gene RHOBTB1, RNA-seq): 0.6316
- change RHOBTB1 (gene RHOBTB1, DEG direction): Up
- logFC RILPL2 (gene RILPL2, RNA-seq): -0.6633
- change RILPL2 (gene RILPL2, DEG direction): Down
- logFC RNASE4 (gene RNASE4, RNA-seq): -1.067
- change RNASE4 (gene RNASE4, DEG direction): Down
- logFC RNF182 (gene RNF182, RNA-seq): 0.812
- change RNF182 (gene RNF182, DEG direction): Up
- logFC RNF208 (gene RNF208, RNA-seq): -0.8526
- change RNF208 (gene RNF208, DEG direction): Down
- logFC RSPO3 (gene RSPO3, RNA-seq): 1.091
- change RSPO3 (gene RSPO3, DEG direction): Up
- logFC RUNDC3B (gene RUNDC3B, RNA-seq): -1.157
- change RUNDC3B (gene RUNDC3B, DEG direction): Down
- logFC S100A3 (gene S100A3, RNA-seq): -0.7971
- change S100A3 (gene S100A3, DEG direction): Down
- logFC S100A4 (gene S100A4, RNA-seq): -0.5965
- change S100A4 (gene S100A4, DEG direction): Down
- logFC SCIN (gene SCIN, RNA-seq): -0.6372
- change SCIN (gene SCIN, DEG direction): Down
- logFC SDCCAG8 (gene SDCCAG8, RNA-seq): 0.7756
- change SDCCAG8 (gene SDCCAG8, DEG direction): Up
- logFC SEL1L (gene SEL1L, RNA-seq): 0.5873
- change SEL1L (gene SEL1L, DEG direction): Up
- logFC SELENOP (gene SELENOP, RNA-seq): 0.7184
- change SELENOP (gene SELENOP, DEG direction): Up
- logFC SEMA5A (gene SEMA5A, RNA-seq): 1.3518
- change SEMA5A (gene SEMA5A, DEG direction): Up
- logFC SIK2 (gene SIK2, RNA-seq): 0.6807
- change SIK2 (gene SIK2, DEG direction): Up
- logFC SLC5A3 (gene SLC5A3, RNA-seq): -0.7077
- change SLC5A3 (gene SLC5A3, DEG direction): Down
- logFC SLC9B2 (gene SLC9B2, RNA-seq): -0.6372
- change SLC9B2 (gene SLC9B2, DEG direction): Down
- logFC SLC16A6 (gene SLC16A6, RNA-seq): 1.033
- change SLC16A6 (gene SLC16A6, DEG direction): Up
- logFC SLC52A3 (gene SLC52A3, RNA-seq): -2.872
- change SLC52A3 (gene SLC52A3, DEG direction): Down
- logFC SLCO4A1 (gene SLCO4A1, RNA-seq): -0.7226
- change SLCO4A1 (gene SLCO4A1, DEG direction): Down
- logFC SLFN5 (gene SLFN5, RNA-seq): 0.8058
- change SLFN5 (gene SLFN5, DEG direction): Up
- logFC SLPI (gene SLPI, RNA-seq): -0.5978
- change SLPI (gene SLPI, DEG direction): Down
- logFC SNED1 (gene SNED1, RNA-seq): 0.7039
- change SNED1 (gene SNED1, DEG direction): Up
- logFC SNTB1 (gene SNTB1, RNA-seq): 0.7574
- change SNTB1 (gene SNTB1, DEG direction): Up
- logFC SORBS2 (gene SORBS2, RNA-seq): 0.9049
- change SORBS2 (gene SORBS2, DEG direction): Up
- logFC SPAG16 (gene SPAG16, RNA-seq): 0.7042
- change SPAG16 (gene SPAG16, DEG direction): Up
- logFC SPRY4 (gene SPRY4, RNA-seq): -0.9938
- change SPRY4 (gene SPRY4, DEG direction): Down
- logFC ST6GALNAC6 (gene ST6GALNAC6, RNA-seq): -0.6732
- change ST6GALNAC6 (gene ST6GALNAC6, DEG direction): Down
- logFC STARD10 (gene STARD10, RNA-seq): -0.7468
- change STARD10 (gene STARD10, DEG direction): Down
- logFC SULT1A4 (gene SULT1A4, RNA-seq): -0.8677
- change SULT1A4 (gene SULT1A4, DEG direction): Down
- logFC SV2B (gene SV2B, RNA-seq): 1.269
- change SV2B (gene SV2B, DEG direction): Up
- logFC SYN3 (gene SYN3, RNA-seq): -1.293
- change SYN3 (gene SYN3, DEG direction): Down
- logFC TAGLN (gene TAGLN, RNA-seq): 1.297
- change TAGLN (gene TAGLN, DEG direction): Up
- logFC TBC1D2 (gene TBC1D2, RNA-seq): 0.6507
- change TBC1D2 (gene TBC1D2, DEG direction): Up
- logFC TBC1D17 (gene TBC1D17, RNA-seq): -0.5911
- change TBC1D17 (gene TBC1D17, DEG direction): Down
- logFC TCIM (gene TCIM, RNA-seq): 0.8634
- change TCIM (gene TCIM, DEG direction): Up
- logFC TCN1 (gene TCN1, RNA-seq): -1.416
- change TCN1 (gene TCN1, DEG direction): Down
- logFC TEK (gene TEK, RNA-seq): -1.317
- change TEK (gene TEK, DEG direction): Down
- logFC TGFB3 (gene TGFB3, RNA-seq): -0.7747
- change TGFB3 (gene TGFB3, DEG direction): Down
- logFC TIMP3 (gene TIMP3, RNA-seq): -1.01
- change TIMP3 (gene TIMP3, DEG direction): Down
- logFC TLR4 (gene TLR4, RNA-seq): -0.8506
- change TLR4 (gene TLR4, DEG direction): Down
- logFC TM4SF1 (gene TM4SF1, RNA-seq): 0.7666
- change TM4SF1 (gene TM4SF1, DEG direction): Up
- logFC TMEM120B (gene TMEM120B, RNA-seq): -0.6536
- change TMEM120B (gene TMEM120B, DEG direction): Down
- logFC TNFSF15 (gene TNFSF15, RNA-seq): -1.596
- change TNFSF15 (gene TNFSF15, DEG direction): Down
- logFC TNXB (gene TNXB, RNA-seq): -0.7488
- change TNXB (gene TNXB, DEG direction): Down
- logFC TPBG (gene TPBG, RNA-seq): -0.9203
- change TPBG (gene TPBG, DEG direction): Down
- logFC TRNP1 (gene TRNP1, RNA-seq): -0.8357
- change TRNP1 (gene TRNP1, DEG direction): Down
- logFC USH1C (gene USH1C, RNA-seq): 0.9916
- change USH1C (gene USH1C, DEG direction): Up
- logFC VAMP1 (gene VAMP1, RNA-seq): -0.8271
- change VAMP1 (gene VAMP1, DEG direction): Down
- logFC VSIR (gene VSIR, RNA-seq): -0.6272
- change VSIR (gene VSIR, DEG direction): Down
- logFC XYLT1 (gene XYLT1, RNA-seq): 1.184
- change XYLT1 (gene XYLT1, DEG direction): Up
- logFC ZBED6CL (gene ZBED6CL, RNA-seq): -0.9925
- change ZBED6CL (gene ZBED6CL, DEG direction): Down
- logFC ZNF365 (gene ZNF365, RNA-seq): -1.468
- change ZNF365 (gene ZNF365, DEG direction): Down
- logFC ZRANB3 (gene ZRANB3, RNA-seq): 1.008
- change ZRANB3 (gene ZRANB3, DEG direction): Up
